Reference: patent publication US7875270B2, “Treatment solution and method for preventing posterior capsular opacification by selectively inducing detachment and/or death of lens epithelial cells” (Abbott Medical Optics Inc., priority 2002, dated 2011)

Tests used:
[1] = system: human lens epithelial cells (LECs); assay: Confluent LEC monolayers exposed to solutions; MTT cell viability and microscopy; type: cell-based; conditions: 28 μM, 112 μM and 224 μM bumetanide, ≦200 mM NaCl, 3 μl of 5N NaOH
[2] = system: human retinal-pigmented epithelial cells (RPECs); assay: Confluent RPEC monolayers exposed to solutions; MTT cell viability; type: cell-based; conditions: 28 μM, 112 μM and 224 μM bumetanide, ≦200 mM NaCl, 3 μl of 5N NaOH
Protocol: As described below, the confluent monolayers of LECs, CEDCs, and RPECs grown in 96-well flat-bottom plates are exposed to varying concentrations of NaCl (an osmolyte) solution. Two hundred μl of NaCl solution (prepared as described below) are added to each well at concentrations of 137 mM, 170 mM, 340 mM, 680 mM, 1360 mM and 2000 mM NaCl, respectively. The solutions have a pH of 8.0±0.4. The concentrations of NaCl correspond to final osmolarities of about 285 to 4000 mOsm/L, respectively.
The primary and first passages of human lens epithelial cells, human corneal endothelial cells, and human retinal-pigmented epithelial cells are cultured. The LECs, the CEDCs, and the RPECs are isolated from post-mortem eyes by using standard techniques of cell isolation and enzyme digestion. See Uebersax E D, Grindstaff R D and Defoe D M Exp Eye Res. 2000 March; 70(3): 381-90; Wagner L M, Saleh S M, Boyle D J, and Takemoto D J. Mol Vis. 2002 Mar. 14; 8: 59-66; Cammarata P R, Schafer G, Chen S W, Guo Z, and Reeves R E. Invest Ophthalmol Vis Sci. 2002 February; 43(2): 425-33; Rakic J M, Galand A, and Vrensen G F. Exp Eye Res. 2000 November; 71(5): 489-94. LECs and CEDCs are cultured in Eagle's minimum essential medium (MEM). RPECs are cultured in Ham's F10 medium, supplemented with 2 mM glutamine, 25 mmol/L Hepes, pH 7.4, 10 U/mL penicillin, and 10 μg/mL streptomycin and 15% heat-inactivated foetal cow serum (FCS). The primary cultured LECs, CEDCs, and RPECs are sub-cultured at 10^4 cells/wells in 96-well flat-bottom plates until they reached 90 to 100% confluence. These cells are grown to confluence in an incubator with a humidified atmosphere of 5% CO2 at 37° C. The cells are kept in a confluent state for overnight before assays.
After treatment, the treated cells are thoroughly washed, and cultured with fresh media for twelve hours before cell viability is assessed. The capability of these cells to survive at the indicated hypertonic stress levels is assessed by an MTT assay 12-24 hours post-exposure.
MTT assay is an assay to assess mitochondria function, performed as described by Mosmann (Mosmann, T. J Immunol Methods. 1983 Dec. 16; 65(1-2): 55-63. The tetrazolium salt 3-(4,5-dimethylthiazol-2-yl)-2,5-diphenyl tetrazolium bromide (MTT; supplied by Sigma Chemical Co.) is dissolved in Phosphate's Balanced Salt (PBS) Solutions at 5 mg/ml and sterilized by passage through a 0.22 μm Millipore filter. MTT stock solution is added to growth media at a ratio of 1 to 10. Cells are incubated with this growth media for three to four hours. In cells that are alive at the time of adding MTT, mitochondrial dehydrogenase cleaves the tetrazolium ring into a dark blue formazan reaction product, which builds up in the cell. MTT-reacted cultures are observed under brightfield microscopy without further processing. Cells in each well are scored as MTT-positive if they are completely filled with reaction product (in the case of unattached cells) or contain many formazan crystals emanating from multiple foci (in the case of attached or spread cells). MTT-reacted cultures are then lysised by dimethyl sulfoxide (DMSO) and read in a Microplate Reader to obtain a measure of cell viability.
Confluent monolayers of RPECs are prepared as described in Example 1. These cells are exposed for ten minutes to 200 μl/well of the solutions comprising increasing concentrations of NaCl (137 mM, 170 mM, 340 mM, 680 mM, 1360 mM and 2000 mM) at varying pH (8.4±0.5 and 10.6±0.5). The solutions of NaCl are prepared as described in Example 1. The pH of the solutions is adjusted with additions of 1 μl and 5 μl of 5N NaOH as described Example 3.
Confluent monolayers of LECs and RPECs are prepared as described in Example 1. […]
Confluent monolayers of LECs, CEDCs and RPECs are prepared as described in Example 1. […]
To assess whether there is any side effect of this treatment on other ocular cells, confluent monolayers of LECs, CEDCs and RPECs are prepared as described in Example 1. […]

For `CCCCNc1cc(C(=O)O)cc(S(N)(=O)=O)c1Oc1ccccc1` [bumetanide], the “LECs showing MTT negative response” value [1] was roughly 100%, the “LEC response under phase-contrast microscopic observation” value ([1]; about ten minutes) was “nearly all of the LECs shrink, detach and/or die” and the “RPECs killed or removed” value [2] was “less than 20%”.
